Among the test systems are A498 renal; K-562 leukemia; TK-10 renal; HL-60(TB) leukemia; NCI-H522 lung; NCI-H460 lung; SF-539 CNS; UACC-62 melanoma; CAKI-1 renal; OVCAR-8 ovarian.
Assay in all cases: growth of human tumour cells (NCI), 48 h

“And” between values parts separate entries of the source, which are not always exact repeats. Equal entries are not always repeated.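 Each compound was tested at five concentrations against cells in 96-well plates for 48 hours. GI50 = concentration required for 50% inhibition of growth. At the TGI there is no net growth.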 *1 amine or outer side, *2 acyl side, *3 side chain or, on linkers, in order; H or OH if unused. Where a SMILES comes first, the peptide text is derived from it. Bridges are numbered along the chain shown (N, C = ends). [ ]: non-standard residue; d: D form. ξ: configuration not given here. X4 = CCC(C)C(N[*:1])C(O)CC(=O)O[C@H](C(=O)C(C)C(=O)[*:2])C(C)C; NMeY = CN[C@@H](Cc1ccc(O)cc1)C(=O)O; ξNMeL = CNC(CC(C)C)C(=O)O; ξT = CC(O)C(N)C(=O)O Some results are limits rather than exact numbers.

In PubChem BioAssay (NCI) one finds TGI and GI50 data, which are given here for 15 compounds.

For the compound `O=C(NCCNCCO)N/N=C/c1ccc(Cl)cc1`, the TGI with A498 renal, in the test on K-562 leukemia, with TK-10 renal, in the test with HL-60(TB) leukemia, in the test on NCI-H522 lung and with NCI-H460 lung was > 100 µM each time. Moreover, the TGI in the test on SF-539 CNS, in the test with UACC-62 melanoma, in the test on CAKI-1 renal and with OVCAR-8 ovarian was > 100 µM each time.
As to `O=C(N=Nc1ccccc1Br)NNc1ccccc1Br`, the TGI with A498 renal is > 100 µM; in the test with K-562 leukemia, > 100 µM; in the test with TK-10 renal, > 100 µM; in the test with HL-60(TB) leukemia, 86.7 µM; in the test with NCI-H522 lung, > 100 µM; in the test on NCI-H460 lung, > 100 µM. The TGI with UACC-62 melanoma, with CAKI-1 renal and with OVCAR-8 ovarian was > 100 µM each time.
`COc1ccc(-c2c(C#N)c(-c3ccccc3)n(NS(=O)(=O)c3ccccc3)c(=O)c2C#N)cc1`: the TGI in the test with A498 renal is > 100 µM; in the test on K-562 leukemia, > 100 µM; in the test with TK-10 renal it was > 100 µM; with HL-60(TB) leukemia it was > 100 µM; in the test on NCI-H522 lung, 73.7 µM; in the test on NCI-H460 lung, > 100 µM. Further, the TGI with SF-539 CNS, with UACC-62 melanoma, in the test with CAKI-1 renal and in the test on OVCAR-8 ovarian was > 100 µM in each case.
Consider `CCC(C)C1NC(=O)C(NC(=O)C(CC(C)C)N(C)C(=O)[C@@H]2CCCN2)C(C)OC(=O)[C@H](Cc2ccc(OC)cc2)N(C)C(=O)[C@@H]2CCCN2C(=O)[C@H](CC(C)C)NC(=O)C(C)C(=O)[C@H](C(C)C)OC(=O)CC1O` (some centres undefined) (H-P[ξNMeL][ξT][X4]LP[NMeY](Me); ester 3-C), for which the TGI was 0.0372 µM and 0.15 µM with A498 renal; 0.027 µM and 0.141 µM with TK-10 renal; 0.0279 µM and 0.0213 µM in the test on HL-60(TB) leukemia; 0.00653 µM with NCI-H522 lung; 0.00208 µM in the test with SF-539 CNS; 0.00147 µM in the test with UACC-62 melanoma. Besides, the TGI in the test with CAKI-1 renal was 0.364 µM and 0.13 µM; in the test on OVCAR-8 ovarian it was 0.0243 µM and 0.0387 µM.
For `OCCN=C1Nc2ccc(Cl)cc2C(=S)N2CSC[C@@H]12`, the TGI in the test with A498 renal, in the test on K-562 leukemia, with NCI-H522 lung, in the test with NCI-H460 lung, in the test with SF-539 CNS and in the test on UACC-62 melanoma was > 100 µM in each case. In addition, the TGI with CAKI-1 renal and in the test on OVCAR-8 ovarian was > 100 µM throughout.
Regarding `COS(=O)c1cc(Cl)cc(Cl)c1O` (centres undefined), the TGI is > 100 µM in the test with A498 renal; > 100 µM in the test with K-562 leukemia; > 100 µM in the test with TK-10 renal; > 100 µM in the test with HL-60(TB) leukemia; 36.3 µM in the test on NCI-H522 lung; > 100 µM in the test on NCI-H460 lung. The TGI in the test with SF-539 CNS and in the test with UACC-62 melanoma was > 100 µM throughout.
Consider `C/C=C/[C@H]1O[C@@](OC)([C@@H](C)[C@H](O)[C@H](C)[C@H]2OC(=O)/C(OC)=C/C(C)=C/[C@@H](C)[C@@H](O)[C@@H](C)[C@@H](O)[C@H](C)C/C(C)=C/C=C/[C@@H]2OC)CC(OC2CC(O)C(OC(N)=O)C(C)O2)[C@@H]1C` (some centres undefined), for which the TGI was 21 µM in the test with A498 renal; 23.3 µM in the test with TK-10 renal; 1.42 µM in the test with NCI-H522 lung; 4.17 µM in the test with NCI-H460 lung; < 0.01 µM in the test on SF-539 CNS; 11.7 µM in the test on CAKI-1 renal. The same compound displayed a TGI with OVCAR-8 ovarian of 17.3 µM.
For `CCCCN(c1ccccc1)c1ncnc2c1cnn2C`, the TGI was 71.1 µM with A498 renal; > 100 µM with K-562 leukemia; > 100 µM in the test on TK-10 renal; 47.6 µM with HL-60(TB) leukemia; 53.6 µM with NCI-H522 lung; > 100 µM in the test with NCI-H460 lung. Besides, the TGI in the test on UACC-62 melanoma, with CAKI-1 renal and in the test with OVCAR-8 ovarian was > 100 µM each time.
For `N#CCc1nc(C#N)c(N)o1`, the TGI with A498 renal, with TK-10 renal, in the test with HL-60(TB) leukemia, in the test with NCI-H522 lung, with NCI-H460 lung and with SF-539 CNS was > 100 µM in each case. Moreover, the TGI in the test with UACC-62 melanoma, with CAKI-1 renal and in the test with OVCAR-8 ovarian was > 100 µM each time. In addition, in the test on HL-60(TB) leukemia, the GI50 was > 100 µM.
As for `N#CC1=CNc2sccc2S1(=O)=O`, the TGI in the test on A498 renal, in the test with TK-10 renal, with NCI-H522 lung, in the test with NCI-H460 lung, in the test on SF-539 CNS and in the test with UACC-62 melanoma was > 100 µM throughout. Also, the TGI in the test on CAKI-1 renal and in the test on OVCAR-8 ovarian was > 100 µM each time.
`O=C(NNC(=S)Nc1ccccc1)c1csc(NC(=S)NC2CCCCC2)n1`: the TGI in the test with A498 renal, in the test with TK-10 renal, in the test on HL-60(TB) leukemia, with NCI-H522 lung, with SF-539 CNS and in the test with UACC-62 melanoma was > 100 µM throughout. For the same compound, the TGI in the test with CAKI-1 renal and in the test on OVCAR-8 ovarian was > 100 µM in each case.
On to `COc1ccc(OC)c2cc(Cc3ccc(N(C)C)cc3)c(=O)c(Cc3ccc(N(C)C)cc3)cc12`, for which the TGI was 96.2 µM in the test on A498 renal; > 100 µM in the test on K-562 leukemia; 89.9 µM in the test on NCI-H522 lung; > 100 µM in the test on NCI-H460 lung; > 100 µM in the test on SF-539 CNS; > 100 µM in the test on UACC-62 melanoma. Also, the TGI in the test with CAKI-1 renal and with OVCAR-8 ovarian was > 100 µM each time.
In the case of `COC(=O)C(COC(=O)/C=C/c1ccc(OC(C)=O)c(OC(C)=O)c1)OC(=O)/C=C/c1ccc(OC(C)=O)c(OC(C)=O)c1` (centres undefined), the TGI was determined as 43.1 µM in the test on A498 renal; 31.2 µM in the test on K-562 leukemia; 32.8 µM in the test on TK-10 renal; 26.7 µM with NCI-H522 lung; 57.2 µM in the test on NCI-H460 lung; 24.2 µM with SF-539 CNS. The TGI with UACC-62 melanoma was found to be 30.9 µM; with CAKI-1 renal, 43.1 µM; in the test with OVCAR-8 ovarian, 26.4 µM.
On to `O=C1OS2(OCc3cccc4cccc2c34)c2ccccc21` (centres undefined), for which the TGI in the test on A498 renal, in the test on K-562 leukemia, in the test on TK-10 renal, with HL-60(TB) leukemia, in the test with NCI-H522 lung and in the test on NCI-H460 lung was > 100 µM each time. The TGI in the test with SF-539 CNS, in the test on UACC-62 melanoma and in the test with CAKI-1 renal was > 100 µM each time.
With `COC(=O)c1cncc2c1CC1C3(C(=O)OC)C=NC(C4C(CO)=CCC43)C21C` (centres undefined), the TGI in the test on A498 renal, in the test on TK-10 renal, with HL-60(TB) leukemia, with NCI-H522 lung, in the test with NCI-H460 lung and in the test on SF-539 CNS was > 100 µM in each case. For the same compound, the TGI in the test with CAKI-1 renal and in the test on OVCAR-8 ovarian was > 100 µM each time.
